# Test results from patent US20260256751A1, “COMBINATION OF BETA-2-ADRENERGIC RECEPTOR AGONISTS AND GLP-1 RECEPTOR AGONISTS FOR USE IN TREATING HYPERGLYCAEMIA” (ATROGI AB, priority 2023, published 2026).
# What was measured:
# [1] = tested on: differentiated L6-myotubes; assay: Glucose uptake screen (Biological example 1 of WO 2019/053427); type: cell-based; details: compound at 10 μM, activity relative to isoproterenol at 10 μM; for Emax at 10 µM: read-out: Biological example 1 of WO 2019/053427 (GU)
# How it was run: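 Uptake was read out as ^3H-2-deoxyglucose (50 nM, 10 min) radioactivity in NaOH lysates. Beforehand, overnight-starved, differentiated L6 myotubes received compound at 1×10^−5 M with ICI-118551 present for 1 h 40 min, followed by fresh agonist for a further 20 min in glucose-free medium.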
# [2] = tested on: differentiated L6-myotubes; assay: cAMP production relative to isoprenaline (Biological example 2 of WO 2019/053427); type: cell-based; details: 0.25 h, compound at 10 μM, activity relative to isoproterenol at 10 μM
# How it was run: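 Values are cAMP levels relative to isoprenaline at equal concentration (final 1×10^−5 M for both). Stimulation lasted 15 min in differentiated L6 myotubes, using HBSS buffer (pH 7.4) containing 1 mM IBMX, 5 mM HEPES and 1% BSA.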
smiles,measurement,setting,value
"CS(=O)(=O)N(Cc1ccccc1)CC12CCC([C@@H](O)c3cccc(F)c3)(CC1)N2 [Compound 538, (S)-(4-{[(benzyl)-N-mesylamino]methyl}-7-azabicyclo[2.2.1]hept-1-yl)(m-fluorophenyl)methanol]",Emax at 10 µM,[1],50 to 75%
same,Emax at 10 µM,[2],< 25%
"CCCC12CCC([C@@H](O)c3cccc(F)c3)(CC1)N2 [Compound 182, (S)-(m-fluorophenyl)(- propyl-7-azabicyclo[2.2.1]hept-1-yl)methanol]",Emax at 10 µM,[1],< 25%
same,Emax at 10 µM,[2],< 25%
"O[C@H](c1cccc(F)c1)C12CCC(COCc3ccc(OC(F)(F)F)cc3)(CC1)N2 [Compound 488, (R)-(m-fluorophenyl)(4-{[(p-trifluoromethoxyphenyl)methoxy]methyl}-7-azabicyclo[2.2.1]hept-1-yl)methanol]",Emax at 10 µM,[1],< 25%
same,Emax at 10 µM,[2],< 25%
"CN(C)S(=O)(=O)[C@H]1CC[C@H](CC(C)(C)NC[C@H](O)c2cncc(F)c2)CC1 [Compound 465, (R)-2-{1,1-dimethyl-2-[(1r,4R)-4-(dimethylaminosulfonyl)cyclohexyl]ethylamino}-1-(5-fluoro-3-pyridyl)-1-ethanol]",Emax at 10 µM,[1],50 to 75%
same,Emax at 10 µM,[2],25 to 50%
"O[C@@H](c1cncc(F)c1)C12CCC(COCc3ccc(OC(F)(F)F)cc3)(CC1)N2 [Compound 489, (S)-(5-fluoro-3-pyridyl)(4-{[(p-trifluoromethoxyphenyl)methoxy]methyl}-7-azabicyclo[2.2.1]hept-1-yl)methanol]",Emax at 10 µM,[1],< 25%
same,Emax at 10 µM,[2],< 25%
"COc1ccc(CC23CCC([C@H](O)c4cccc(F)c4)(CC2)N3)cc1 [Compound 401, (R)-(m-fluorophenyl){4-[(p-methoxyphenyl)methyl]-7-azabicyclo[2.2.1]hept-1-yl}methanol]",Emax at 10 µM,[1],> 75%
same,Emax at 10 µM,[2],< 25%
"CCCCCCCCNCC(O)c1ccc(O)cc1 (stereo not drawn) [Compound 18, 1-(p-hydroxyphenyl)-2-(octylamino)-1-ethanol]",Emax at 10 µM,[1],25 to 50%
same,Emax at 10 µM,[2],< 25%
"CC1(C)CC[C@H]([C@H](O)c2ccccc2F)N1 [Compound 175, (R)-[(R)-5,5-dimethyl-2-pyrrolidinyl](o-fluorophenyl)methanol]",Emax at 10 µM,[1],> 75%
same,Emax at 10 µM,[2],25 to 50%
"CC(=O)N[C@H]1CC[C@H](CC(C)(C)NC[C@H](O)c2cccc(F)c2)CC1 [Compound 383, N-[(1R,4r)-4-{2-[(R)-2-(m-fluorophenyl)-2-hydroxyethylamino]-2-methylpropyl}cyclohexyl]acetamide]",Emax at 10 µM,[1],> 75%
same,Emax at 10 µM,[2],25 to 50%
"CCCC(C)(C)NC[C@H](O)c1cccc(F)c1 [Compound 61, (R)-2-(1,1-dimethylbutylamino)-1-(m-fluorophenyl)-1-ethanol]",Emax at 10 µM,[1],> 75%
same,Emax at 10 µM,[2],< 25%
"CC(C)(C[C@H]1CC[C@@H](C#N)CC1)NC[C@H](O)c1cccc(F)c1 [Compound 399, (1S,4s)-4-{2-[(R)-2-(m-fluorophenyl)-2-hydroxyethylamino]-2-methylpropyl)cyclohexanecarbonitrile]",Emax at 10 µM,[1],> 75%
same,Emax at 10 µM,[2],25 to 50%
"CO[C@H]1CC[C@H](CCCNC[C@H](O)c2cccc(F)c2)CC1 [Compound 259, (R)-1-(m-fluorophenyl)-2-{3-[(1r,4S)-4-methoxycyclohexyl]propyl-amino}-1-ethanol]",Emax at 10 µM,[1],25 to 50%
same,Emax at 10 µM,[2],< 25%
"CCCC1(CCC)CC[C@H]([C@@H](O)c2cccc(F)c2)N1 [Compound 158, (S)-[(R)-5,5-dipropyl-2-pyrrolidinyl](m-fluorophenyl)methanol]",Emax at 10 µM,[1],< 25%
same,Emax at 10 µM,[2],< 25%
"CC12CCC([C@@H](O)c3ccccc3F)(CC1)N2 [Compound 180, (S)-(o-fluorophenyl)(4-methyl-7-azabicyclo[2.2.1]hept-1-yl)methanol]",Emax at 10 µM,[1],> 75%
same,Emax at 10 µM,[2],< 25%
"CC1(C)CC[C@H]([C@@H](O)c2ccccc2Cl)N1 [Compound 151, (S)-[(R)-5,5-dimethyl-2-pyrrolidinyl](o-chlorophenyl)methanol]",Biological example 1 of WO 2019/053427 (GU),[1],− (less than 25%)
same,Emax at 10 µM,[2],< 25%
"CC1(C)CC[C@H]([C@@H](O)c2cccc(Cl)c2)N1 [Compound 153, (S)-[(R)-5,5-dimethyl-2-pyrrolidinyl](m-chlorophenyl)methanol]",Emax at 10 µM,[1],25 to 50%
same,Emax at 10 µM,[2],< 25%
"CC(C)(C[C@H]1CC[C@H](C(=O)O)CC1)NC[C@H](O)c1cccc(F)c1 [Compound 355, (1R,4r)-4-{2-[(R)-2-(m-fluorophenyl)-2-hydroxyethylamino]-2-methylpropyl}cyclohexanecarboxylic acid]",Emax at 10 µM,[1],50 to 75%
same,Emax at 10 µM,[2],< 25%
"Oc1ccc(C(O)CNC23CC4CC(CC(C4)C2)C3)cc1 (stereo not drawn) [Compound 11, p-[2-(1-adamantanylamino)-1-hydroxyethyl]phenol]",Emax at 10 µM,[1],25 to 50%
same,Emax at 10 µM,[2],< 25%
"CC12CCC([C@@H](O)c3cccc(F)c3)(CC1)N2 [Compound 178, (S)-(m-fluorophenyl)(4-methyl-7-azabicyclo[2.2.1]hept-1-yl)methanol]",Emax at 10 µM,[1],25 to 50%
same,Emax at 10 µM,[2],< 25%
"CCCCNC[C@H](O)c1csc(N)n1 [Compound 71, (S)-1-(2-amino-1,3-thiazol-4-yl)-2-(butylamino)-1-ethanol]",Emax at 10 µM,[1],25 to 50%
same,Emax at 10 µM,[2],< 25%
"CCCCNC[C@H](O)c1cnc(N)s1 [Compound 75, (S)-1-(2-amino-1,3-thiazol-5-yl)-2-(butylamino)-1-ethanol]",Emax at 10 µM,[1],25 to 50%
same,Emax at 10 µM,[2],< 25%
"CS(=O)(=O)Nc1cccc(CC23CCC([C@H](O)c4cccc(F)c4)(CC2)N3)c1 [Compound 515, (R)-(m-fluorophenyl)(4-{[m-(mesylamino)phenyl]methyl}-7-azabicyclo[2.2.1]hept-1-yl)methanol]",Emax at 10 µM,[1],50 to 75%
same,Emax at 10 µM,[2],25 to 50%
"O[C@H](c1cncc(F)c1)[C@H]1CC[C@H](Cc2ccc(Cl)cc2)N1 [Compound 406, (R)-{(2R,5R)-5-[(p-chlorophenyl)methyl]-2-pyrrolidinyl}(5-fluoro-3-pyridyl)methanol]",Emax at 10 µM,[1],> 75%
same,Emax at 10 µM,[2],< 25%
"O=C(N[C@H]1CC[C@@H](CNC[C@H](O)c2cccc(F)c2)CC1)c1ccccc1 [Compound 316, N-[(1S,4s)-4-{[(R)-2-(m-fluorophenyl)-2-hydroxyethylamino]methyl}cyclohexyl]benzamide]",Emax at 10 µM,[1],50 to 75%
same,Emax at 10 µM,[2],< 25%
"CCC[C@@H]1CC[C@H]([C@@H](O)c2cccc(O)c2)N1 [Compound 127, m-{(S)-[(2R,5R)-5-propyl-2-pyrrolidinyl]hydroxymeth-yl}phenol]",Emax at 10 µM,[1],25 to 50%
same,Emax at 10 µM,[2],< 25%
"CC(C)(C)NC[C@H](O)c1ccc(F)c(O)c1 [Compound 84, (R)-2-(tert-butylamino)-1-(4-fluoro-3-hydroxyphenyl)-1-ethanol]",Emax at 10 µM,[1],> 75%
same,Emax at 10 µM,[2],50 to 75%
"O[C@@H](CNCCC[C@H]1CC[C@H](O)CC1)c1cccc(F)c1 [Compound 303, (R)-1-(m-fluorophenyl)-2-{3-[(1r,4S)-4-hydroxycyclohexyl]propylamino}-1-ethanol]",Emax at 10 µM,[1],50 to 75%
same,Emax at 10 µM,[2],< 25%
"CC1(C)CCC[C@H]([C@@H](O)c2cccc(F)c2)N1 [Compound 101, (S)-[(R)-6,6-dimethyl-2-piperidyl](m-fluorophenyl)methanol]",Emax at 10 µM,[1],25 to 50%
same,Emax at 10 µM,[2],< 25%
"O[C@@H](CNC[C@H]1CC[C@@H](O)CC1)c1cncc(F)c1 [Compound 269, (R)-1-(5-fluoro-3-pyridyl)-2-({[(1s,4S)-4-hydroxycyclohexyl]meth-yl}amno)-1-ethanol]",Emax at 10 µM,[1],25 to 50%
same,Emax at 10 µM,[2],< 25%
"CCC[C@H]1CCC[C@H]([C@H](O)c2cccc(O)c2)N1 [Compound 64, (R)-[(2R,6S)-6-propyl-2-piperidyl](m-hydroxyphenyl)methanol]",Emax at 10 µM,[1],> 75%
same,Emax at 10 µM,[2],< 25%
"COC(=O)[C@H]1CC[C@@H](CCC(C)(C)NC[C@H](O)c2cccc(F)c2)CC1 [Compound 351, methyl (1S,4s)-4-{3-[(R)-2-(m-fluorophenyl)-2-hydroxyethylamino]-3-methylbutyl}cyclohexanecarboxylate]",Emax at 10 µM,[1],> 75%
same,Emax at 10 µM,[2],25 to 50%
CC(C)(C[C@H]1CC[C@H](NC(=O)OC(C)(C)C)CC1)NC[C@H](O)c1cccc(F)c1 [Compound 420],Emax at 10 µM,[1],50 to 75%
same,Emax at 10 µM,[2],25 to 50%
"CC(=O)N[C@H]1CC[C@H](C[C@@H]2CC[C@H]([C@@H](O)c3cccc(F)c3)N2)CC1 [Compound 486, N-[(1S,4r)-4-({(2S,5R)-5-[(S)-(m-fluorophenyl)hydroxymethyl]-2-pyrrolidinyl}methyl)cyclohexyl]acetamide]",Emax at 10 µM,[1],50 to 75%
same,Emax at 10 µM,[2],< 25%
"CCOC(=O)CO[C@H]1CC[C@H](C(C)(C)NC[C@H](O)c2cncc(F)c2)CC1 [Compound 409, ethyl [(1R,4r)-4-{1-[(R)-2-(5-fluoro-3-pyridyl)-2-hydroxyethylamino]-1-methylethyl}cyclohexyloxy]acetate]",Emax at 10 µM,[1],> 75%
same,Emax at 10 µM,[2],< 25%
"CCC[C@H]1CCC[C@H]([C@@H](O)c2cncc(F)c2)N1 [Compound 139, (S)-[(2R,6S)-6-propyl-2-piperidyl](5-fluoro-3-pyridyl)methanol]",Emax at 10 µM,[1],< 25%
same,Emax at 10 µM,[2],< 25%
"CC(C)(C[C@H]1CC[C@@H](NS(C)(=O)=O)CC1)NC[C@H](O)c1cncc(F)c1 [Compound 468, (R)-2-{1,1-dimethyl-2-[(1s,4S)-4-(mesylamino)cyclohexyl]ethylamino}-1-(5-fluoro-3-pyridyl)-1-ethanol]",Emax at 10 µM,[1],> 75%
same,Emax at 10 µM,[2],< 25%
